Assay results taken from PubChem BioAssay AID1845196 (Molecular Pharmacology Branch, DTP, NCI, 2023).
“And” between values parts separate entries of the source, which are not always exact repeats. Equal values may be shown once.

System: 292921-168-R tumor spheroid viability
Assay: Anticancer human tumor 292921-168-R patient-derived pancreatic carcinoma cell line growth inhibition
Conditions: spheroids with HUVEC and MSC; for viability, T/C: stronger effect = lower value
Summary of the method: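 Complex tumor spheroids combined malignant cells with endothelial cells and mesenchymal stem cells. DNA-damaging drugs and DNA repair inhibitors were tested alone and in combination, at half-log dilutions down from clinical Cmax (top 10 microM if Cmax unknown), 0.25% DMSO final.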

[1] = curve of first compound, second compound 0.003 µM
[2] = compound alone, run of 10/25/2019
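Note: spheroids exposed to compounds for 7 days.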

COc1cc(C)[nH]c(=O)c1CN1CCc2c(Cl)cc(C(OC)C3COC3)c(Cl)c2C1=O (stereo not drawn) + CC[C@@]1(O)C(=O)OCc2c1cc1n(c2=O)Cc2cc3c(CN(C)C)c(O)ccc3nc2-1
IC50 [1]: > 10000 nM | IC50 (curve of first compound, second compound 0.00949 µM): > 10000 nM | IC50 (curve of first compound, second compound 0.03 µM): 394 nM | IC50 (curve of first compound, second compound 0.0949 µM): < 31.6 nM | IC50 (curve of first compound, second compound 0.3 µM): < 31.6 nM | viability, T/C (second compound 0.003 µM, first compound 0.0316 µM): 108% | viability, T/C (second compound 0.003 µM, first compound 0.1 µM): 102% | viability, T/C (second compound 0.003 µM, first compound 0.316 µM): 85% | viability, T/C (second compound 0.003 µM, first compound 1 µM): 90.7% | viability, T/C (second compound 0.003 µM, first compound 3.16 µM): 88.7% | viability, T/C (second compound 0.003 µM, first compound 10 µM): 82.8% | viability, T/C (second compound 0.00949 µM, first compound 0.0316 µM): 92.6% | viability, T/C (second compound 0.00949 µM, first compound 0.1 µM): 94.1% | viability, T/C (second compound 0.00949 µM, first compound 0.316 µM): 71.3% | viability, T/C (second compound 0.00949 µM, first compound 1 µM): 71.5% | viability, T/C (second compound 0.00949 µM, first compound 3.16 µM): 81.3% | viability, T/C (second compound 0.00949 µM, first compound 10 µM): 63.3% | viability, T/C (second compound 0.03 µM, first compound 0.0316 µM): 50.6% | viability, T/C (second compound 0.03 µM, first compound 0.1 µM): 59.1% | viability, T/C (second compound 0.03 µM, first compound 0.316 µM): 53.4% | viability, T/C (second compound 0.03 µM, first compound 1 µM): 39.2% | viability, T/C (second compound 0.03 µM, first compound 3.16 µM): 40.2% | viability, T/C (second compound 0.03 µM, first compound 10 µM): 19.8% | viability, T/C (second compound 0.0949 µM, first compound 0.0316 µM): 13.1% | viability, T/C (second compound 0.0949 µM, first compound 0.1 µM): 15.6% | viability, T/C (second compound 0.0949 µM, first compound 0.316 µM): 12.9% | viability, T/C (second compound 0.0949 µM, first compound 1 µM): 9.42% | viability, T/C (second compound 0.0949 µM, first compound 3.16 µM): 10.1% | viability, T/C (second compound 0.0949 µM, first compound 10 µM): 7.35% | viability, T/C (second compound 0.3 µM, first compound 0.0316 µM): 4.43% | viability, T/C (second compound 0.3 µM, first compound 0.1 µM): 4.26% | viability, T/C (second compound 0.3 µM, first compound 0.316 µM): 3.82% | viability, T/C (second compound 0.3 µM, first compound 1 µM): 2.93% | viability, T/C (second compound 0.3 µM, first compound 3.16 µM): 3.15% | viability, T/C (second compound 0.3 µM, first compound 10 µM): 3.34%

Cc1sc2c(c1C)C(c1ccc(Cl)cc1)=NC(CC(=O)Nc1ccc(O)cc1)c1nnc(C)n1-2 (stereo not drawn) + COc1cc2c(cc1O)CCNC21CSC2c3c(OC(C)=O)c(C)c4c(c3C(COC1=O)N1C(O)C3Cc5cc(C)c(OC)c(O)c5C(C21)N3C)OCO4
IC50 (curve of first compound, second compound 30 pM): 1690 nM | IC50 (curve of first compound, second compound 94.9 pM): 1720 nM | IC50 (curve of first compound, second compound 0.0003 µM): 306 nM | IC50 (curve of first compound, second compound 0.000949 µM): < 9.49 nM | IC50 [1]: < 9.49 nM | viability, T/C (second compound 30 pM, first compound 0.00949 µM): 110% | viability, T/C (second compound 30 pM, first compound 0.03 µM): 120% | viability, T/C (second compound 30 pM, first compound 0.0949 µM): 118% | viability, T/C (second compound 30 pM, first compound 0.3 µM): 136% | viability, T/C (second compound 30 pM, first compound 0.949 µM): 63.5% | viability, T/C (second compound 30 pM, first compound 3 µM): 36.5% | viability, T/C (second compound 94.9 pM, first compound 0.00949 µM): 106% | viability, T/C (second compound 94.9 pM, first compound 0.03 µM): 110% | viability, T/C (second compound 94.9 pM, first compound 0.0949 µM): 118% | viability, T/C (second compound 94.9 pM, first compound 0.3 µM): 110% | viability, T/C (second compound 94.9 pM, first compound 0.949 µM): 79.2% | viability, T/C (second compound 94.9 pM, first compound 3 µM): 22.5% | viability, T/C (second compound 0.0003 µM, first compound 0.00949 µM): 53.8% | viability, T/C (second compound 0.0003 µM, first compound 0.03 µM): 52.6% | viability, T/C (second compound 0.0003 µM, first compound 0.0949 µM): 63.2% | viability, T/C (second compound 0.0003 µM, first compound 0.3 µM): 50.7% | viability, T/C (second compound 0.0003 µM, first compound 0.949 µM): 4.2% | viability, T/C (second compound 0.0003 µM, first compound 3 µM): 0.5% | viability, T/C (second compound 0.000949 µM, first compound 0.00949 µM): 1.64% | viability, T/C (second compound 0.000949 µM, first compound 0.03 µM): 1.61% | viability, T/C (second compound 0.000949 µM, first compound 0.0949 µM): 0.91% | viability, T/C (second compound 0.000949 µM, first compound 0.3 µM): 0.26% | viability, T/C (second compound 0.000949 µM, first compound 0.949 µM): 0.07% | viability, T/C (second compound 0.000949 µM, first compound 3 µM): 0.13% | viability, T/C (second compound 0.003 µM, first compound 0.00949 µM): 0.18% | viability, T/C (second compound 0.003 µM, first compound 0.03 µM): 0.16% | viability, T/C (second compound 0.003 µM, first compound 0.0949 µM): 0.16% | viability, T/C (second compound 0.003 µM, first compound 0.3 µM): 0.15% | viability, T/C (second compound 0.003 µM, first compound 0.949 µM): 0.25% | viability, T/C (second compound 0.003 µM, first compound 3 µM): 0.58%

COc1cc2c(cc1O)CCNC21CSC2c3c(OC(C)=O)c(C)c4c(c3C(COC1=O)N1C(O)C3Cc5cc(C)c(OC)c(O)c5C(C21)N3C)OCO4 (stereo not drawn)
viability, T/C (compound 94.9 pM): 101% [middle of 10 runs] | viability, T/C (compound 0.0003 µM): 41.8% [middle of 10 runs] | viability, T/C (compound 0.000949 µM): 3.57% [middle of 10 runs] | viability, T/C (compound 0.003 µM): 0.16% [middle of 5 runs] | IC50 [2]: 0.259 nM [middle of 10 runs]

Cn1ncnc1[C@H]1c2n[nH]c(=O)c3cc(F)cc(c23)N[C@@H]1c1ccc(F)cc1
viability, T/C (compound 0.00949 µM): 101% and 87.5% and 95.8% | viability, T/C (compound 0.03 µM): 93.7% and 83.1% and 93% | viability, T/C (compound 0.0949 µM): 87.9% and 81.8% and 80.5% | viability, T/C (compound 0.3 µM): 68.6% and 62.7% and 63.2% | viability, T/C (compound 0.949 µM): 41.3% and 36.9% and 46% | viability, T/C (compound 3 µM): 14% (2×) and 11.2% | IC50 (curve of compound): 661 nM and 537 nM and 692 nM

CC(C)n1c(=O)n(C)c2cnc3cc(F)c(-c4ccc(OCCCN5CCCCC5)nc4)cc3c21
viability, T/C (compound 0.0316 µM): 93.7% and 95.7% and 101% | viability, T/C (compound 0.1 µM): 92.2% and 101% and 92.6% | viability, T/C (compound 0.316 µM): 92.8% and 93.5% and 87.8% | viability, T/C (compound 1 µM): 92.4% and 91.1% and 84% | viability, T/C (compound 3.16 µM): 70.3% and 70.5% and 69.1% | viability, T/C (compound 10 µM): 29.2% and 26.8% and 32.8% | IC50 (curve of compound): 5580 nM and 5440 nM and 5670 nM

CC[C@@]1(O)C(=O)OCc2c1cc1n(c2=O)Cc2cc3c(CN(C)C)c(O)ccc3nc2-1
viability, T/C (compound 0.003 µM): 94.9% [middle of 10 runs] | viability, T/C (compound 0.00949 µM): 77.4% [middle of 10 runs] | viability, T/C (compound 0.03 µM): 36.8% [middle of 10 runs] | viability, T/C (compound 0.0949 µM): 12.2% [middle of 10 runs] | viability, T/C (compound 0.3 µM): 4.45% [middle of 10 runs] | IC50 (compound alone, run of 10/17/2019): 19.4 nM [middle of 5 runs] | IC50 [2]: 22.6 nM [middle of 4 runs]

Cc1cc(C)c(CNC(=O)c2cc(-c3ccc(CN4CCOCC4)cc3)cc3c2cnn3C2CCCC2)c(=O)[nH]1
viability, T/C (compound 0.0316 µM): 103% and 102% and 97.1% | viability, T/C (compound 0.1 µM): 101% and 104% and 88.9% | viability, T/C (compound 0.316 µM): 110% and 97.8% and 101% | viability, T/C (compound 1 µM): 106% and 103% and 98.5% | viability, T/C (compound 3.16 µM): 102% and 88.8% and 103% | viability, T/C (compound 10 µM): 75.6% and 68.8% and 63.9% | IC50 (curve of compound): > 10000 nM
